Holding throughout (format): in vivo, mouse
For data set [1], the system named is WT mice. Put plainly: Analgesic tolerance test during chronic WIN treatment. The following applies: after 14 d of repeated WIN dosage (day 14). As to the method: Briefly, mice were injected with WIN for 14 d, and analgesic tolerance was measured without WIN treatment on day 0, and after 1-h WIN treatment on day 1 and day 14.
There were no genotype differences either in basal pain sensitivity to infrared heat-generated pain (agonist-free, day 0) (FIG. 2C), or in analgesic effects of acute WIN treatment prior to chronic WIN administration (day 1) (FIG. 2D).

Data set [2] is described as follows: Body weight during chronic WIN treatment. As to conditions: mice of all genotypes during chronic WIN treatment. From the text: N=9-13 mice/group. Results represent mean±s.e.m.
In data set [3] the test system is CB1R signaling. The data set is described as follows: CB1R signaling in brain (phosphorylation of MEK and JNK) after chronic WIN. As to conditions: repeated WIN treatment 14 d. As to the method:
WT mice were treated with either daily WIN or vehicle for 14 d, and then subject to an acute dosage of WIN 1 h prior to collection of brain samples.
To investigate whether restoration of CB1R signaling underlies the behavioral regulation by autophagy activation, the level and functionality of CB1R in mouse brain after co-administration of chronic cannabinoids and autophagy inducers were analyzed. […] To determine whether the increased level of CB1R represents CB1R re-sensitization in the brain, the agonist-induced phosphorylation of signaling kinases downstream of CB1R after chronic WIN exposure were analyzed.

Regarding `Cc1c(C(=O)c2cccc3ccccc23)c2cccc3c2n1[C@H](CN1CCOCC1)CO3` [WIN, reference compound], the “analgesic effect of WIN” value in data set [1] is “markedly decreased”. Also, in data set [2], the body weight entry is given as “remained constant”. The “activation of CB1R (CNR1) signaling induced by agonists” value in data set [3] is reported as “decreased activation”.

The record behind these values is patent publication US11241436B2, “Autophagy inducers for treatment of CNS conditions” (Northwestern University, priority 2017, dated 2022).
